What was measured:
BGC-823 = assay: Antiproliferative activity against human BGC823 cells at 10 umole; type: functional
Bel-7402 = assay: Antiproliferative activity against human Bel7402 cells at 10 umole; type: functional
[1] = Inhibition of post acidic-like activity of 20S proteasome
HL-60 = assay: Antiproliferative activity against human HL60 cells at 10 umole; type: functional
[2] = Inhibition of chymotrypsin-like activity of 20S proteasome
KB = assay: Antiproliferative activity against human KB cells at 10 umole; type: functional
[3] = Inhibition of trypsin-like activity of 20S proteasome

Structure (SMILES) | Activity (BGC-823) [%] | Activity (Bel-7402) [%] | IC50 [1] [µmol] | Activity (HL-60) [%] | IC50 [2] [µmol] | Activity (KB) [%] | IC50 [3] [µmol]
CCOC(=O)/C=C/[C@H](Cc1ccccc1)NC(=O)[C@@H](NC(=O)OC(C)(C)C)[C@@H](C)CC | 24.14 | -7.74 | > 100 | 29.56 | > 100 | -0.18 | > 100
CCOC(=O)/C=C/[C@H](Cc1ccc(O)cc1)NC(=O)[C@H](Cc1ccccc1)NC(=O)[C@H](CC(C)C)NC(=O)OC(C)(C)C | 13.74 | -4.24 | > 100 | 7.87 | > 100 | -5.34 | > 100
CCOC(=O)/C=C/[C@H](Cc1ccc(O)cc1)NC(=O)[C@H](CC(C)C)NC(=O)[C@H](CC(C)C)NC(=O)OC(C)(C)C | 0.02 | -6.95 | > 100 | -2.64 | > 100 | -5.99 | > 100
CCOC(=O)/C=C/[C@H](C[C@@H]1CCNC1=O)NC(=O)[C@H](Cc1ccccc1)NC(=O)[C@H](CC(C)C)NC(=O)OC(C)(C)C | 13.89 | -1.63 | > 100 | -7.61 | > 100 | -1.56 | > 100
CCOC(=O)/C=C/[C@H](Cc1ccc(O)cc1)NC(=O)[C@@H](NC(=O)OC(C)(C)C)C(C)C | 18.44 | 4.6 | > 100 | 22.1 | > 100 | 1.76 | > 100
CCOC(=O)/C=C/[C@H](C[C@@H]1CCNC1=O)NC(=O)[C@H](Cc1ccc(O)cc1)NC(=O)[C@H](CC(C)C)NC(=O)[C@H](CC(C)C)NC(=O)OC(C)(C)C | 28.9 | 7.64 | > 100 | 17.73 | 63.41 | 6.64 | > 100
CCOC(=O)/C=C/[C@H](Cc1ccccc1)NC(=O)[C@@H](NC(=O)OC(C)(C)C)C(C)C | 21.27 | -3.57 | > 100 | 27.13 | > 100 | -1.97 | > 100
CCOC(=O)/C=C/[C@H](Cc1ccc(O)cc1)NC(=O)[C@@H](NC(=O)[C@@H](NC(=O)OC(C)(C)C)[C@@H](C)CC)[C@@H](C)O | 14.69 | 3.1 | > 100 | 26.5 | > 100 | 3.76 | > 100
CCOC(=O)/C=C/[C@H](C[C@@H]1CCNC1=O)NC(=O)[C@H](CC(C)C)NC(=O)[C@H](CO)NC(=O)[C@@H](NC(=O)OC(C)(C)C)C(C)C | 20.55 | -3.55 | > 100 | -47.14 | > 100 | 9.15 | > 100
CCOC(=O)/C=C/[C@H](Cc1ccccc1)NC(=O)[C@H](CO)NC(=O)[C@@H](NC(=O)OC(C)(C)C)C(C)C | 0.04 | -11.09 | > 100 | 0.36 | > 100 | -6.79 | > 100
CCOC(=O)/C=C/[C@H](Cc1ccccc1)NC(=O)[C@H](CO)NC(=O)OC(C)(C)C | 19.11 | -3.14 | > 100 | 19.98 | > 100 | -11.24 | > 100
CCOC(=O)/C=C/[C@H](Cc1ccccc1)NC(=O)[C@H](CO)NC(=O)[C@H](Cc1ccccc1)NC(=O)OC(C)(C)C | 8.28 | -8.04 | > 100 | 21.08 | > 100 | 5.23 | > 100
CC(C)(C)OC(=O)N[C@@H](Cc1ccccc1)C(=O)N[C@@H](CO)C(=O)N[C@H](/C=C/C(=O)O)C[C@@H]1CCNC1=O | 16.9 | 1.66 | > 100 | 31.04 | > 100 | -15.6 | > 100
CCOC(=O)/C=C/[C@H](Cc1ccccc1)NC(=O)[C@H](Cc1ccccc1)NC(=O)[C@H](CC(C)C)NC(=O)OC(C)(C)C | 13.32 | -4.56 | > 100 | 8.65 | > 100 | 4.33 | > 100
